From PMC11491390, “Inhibition of HCN1 currents by norquetiapine, an active metabolite of the atypical anti-psychotic drug quetiapine” (Frontiers in Pharmacology, 2024)

Molecular target: T1, HCN1 (Mus musculus, UniProt O88704)
T1 construct: full-length HCN1
Experiment: two-electrode voltage clamp, channel expressed in Xenopus laevis oocytes (shift in V1/[…])
Assay type: cell-based

T1 sequence (O88704 whole entry): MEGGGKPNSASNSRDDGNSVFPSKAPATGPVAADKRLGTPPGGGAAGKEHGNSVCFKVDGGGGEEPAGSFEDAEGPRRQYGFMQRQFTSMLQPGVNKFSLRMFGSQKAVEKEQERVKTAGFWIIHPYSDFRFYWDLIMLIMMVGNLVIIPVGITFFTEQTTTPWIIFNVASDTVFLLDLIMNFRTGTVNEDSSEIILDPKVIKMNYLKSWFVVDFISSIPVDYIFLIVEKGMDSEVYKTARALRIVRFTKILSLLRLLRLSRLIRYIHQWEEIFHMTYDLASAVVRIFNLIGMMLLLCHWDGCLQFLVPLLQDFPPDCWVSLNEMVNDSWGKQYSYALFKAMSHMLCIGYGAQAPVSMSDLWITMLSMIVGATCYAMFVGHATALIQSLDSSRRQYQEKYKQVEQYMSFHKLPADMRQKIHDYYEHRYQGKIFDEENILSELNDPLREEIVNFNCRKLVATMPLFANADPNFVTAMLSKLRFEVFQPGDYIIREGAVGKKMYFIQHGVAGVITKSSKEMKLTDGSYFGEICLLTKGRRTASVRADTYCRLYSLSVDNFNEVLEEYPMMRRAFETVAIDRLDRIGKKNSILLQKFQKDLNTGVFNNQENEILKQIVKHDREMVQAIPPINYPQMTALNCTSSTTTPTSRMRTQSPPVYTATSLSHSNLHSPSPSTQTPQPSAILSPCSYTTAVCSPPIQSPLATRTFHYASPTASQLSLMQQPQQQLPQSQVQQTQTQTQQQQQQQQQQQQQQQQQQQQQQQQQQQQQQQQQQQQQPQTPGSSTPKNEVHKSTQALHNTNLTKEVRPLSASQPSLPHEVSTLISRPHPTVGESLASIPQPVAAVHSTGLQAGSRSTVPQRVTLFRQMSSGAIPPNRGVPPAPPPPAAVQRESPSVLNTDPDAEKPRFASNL

IC50: 13.9 ± 0.8 µM
Structure (SMILES): c1ccc2c(c1)N=C(N1CCNCC1)c1ccccc1S2 [NQTP, norquetiapine]
